The values that follow are results of earlier work, collected in US20080255186A1, “Pyrazolo[3,4-B]Pyridine Compound, and Its Use as a Pde4 Inhibitor” (priority 2005, published 2008).

Series [1] concerns atopic dermatitis patients. The following applies: 0.5% ointment, twice daily topical application; cited from earlier work.
The subject of series [2] is COPD patients. The following applies: cited from earlier work.
Series [3] concerns atopic dermatitis patients. To be noted: 0.15% cream vs vehicle and hydrocortisone 17-butyrate (0.1%) cream; cited from earlier work.
Series [4] concerns humans with histories of allergic rhinitis. To be noted: orally 500 ug once daily for 9 days, compared to placebo; cited from earlier work.

Each structure is given as a SMILES string.

Take `COc1ccc(C2CNC(=O)NC2)cc1O[C@H]1C[C@@H]2CC[C@H]1C2` [CP80,633]: the “Effect on inflammatory parameters in atopic dermatitis patients” value in series [1] is “reductions of inflammatory parameters”.

On to `COc1ccc([C@]2(C#N)CC[C@@H](C(=O)O)CC2)cc1OC1CCCC1` [cilomilast], for which the “Effect on forced expiratory volume (FEV1) in COPD patients” value in series [2] (cilomilast: 15 mg orally twice daily) was “appears to improve forced expiratory volume”. For the same compound, the “Antiinflammatory effects in COPD patients” value in series [2] (human, in vivo) was “appears to have antiinflammatory effects in COPD patients”.

Turning to `Nc1nc2c([nH]1)c(=O)n(CC1CC1)c(=O)n2CC1CC1` [cipamfylline], the “Efficacy in treatment of atopic dermatitis patients” value in series [3] is “significantly more effective than vehicle, but significantly less effective than hydrocortisone 17-butyrate (0.1%) cream”.

For `O=C(Nc1c(Cl)cncc1Cl)c1ccc(OC(F)F)c(OCC2CC2)c1` [roflumilast], the “Effect on rhinal airflow” value in series [4] is listed as “effective in improving rhinal airflow”.
